How the values were obtained:
barnyardgrass [1] = experiment: Test B pre-/postemergence herbicide test; assay type: in vivo, Echinochloa crus-galli; conditions: for Plant response rating, Barnyardgrass: preemergence; for Barnyardgrass plant response rating: postemergence, visual rating, scale 0 (no effect) to 100 (complete control)
Outline: (§1)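 Plants compared with untreated controls 13–15 days post-treatment and given a visual 0–100 injury score. Applications: preemergence to seeds; postemergence at 1- to 4-leaf (2–18 cm); paddy species flooded, 2-leaf stage. Vehicle non-phytotoxic, surfactant included.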

Surinam grass = experiment: Test B pre-/postemergence herbicide test; assay type: in vivo, Urochloa decumbens; conditions: for Plant response rating, Surinam Grass: preemergence; for Surinam Grass plant response rating: postemergence, visual rating, scale 0 (no effect) to 100 (complete control)
Outline: (§2)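 Evaluation is visual, comparing treated with control plants on a scale where 0 means no effect and 100 means full control. Treatments were preemergence, or postemergence on seedlings 2–18 cm tall, and held 13–15 days in the greenhouse.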

cocklebur = experiment: Test B pre-/postemergence herbicide test; assay type: in vivo, Xanthium strumarium; conditions: for Plant response rating, Cocklebur: preemergence; for Cocklebur plant response rating: postemergence, visual rating, scale 0 (no effect) to 100 (complete control)
Outline: as §1

corn = experiment: Test B pre-/postemergence herbicide test; assay type: in vivo, Zea mays; conditions: for Plant response rating, Corn: preemergence; for Corn plant response rating: postemergence, visual rating, scale 0 (no effect) to 100 (complete control)
Outline: as §2

large crabgrass = experiment: Test B pre-/postemergence herbicide test; assay type: in vivo, Digitaria sanguinalis; conditions: for Plant response rating, Crabgrass, Large: preemergence; for Crabgrass, Large plant response rating: postemergence, visual rating, scale 0 (no effect) to 100 (complete control)
Outline: as §2

giant foxtail = experiment: Test B pre-/postemergence herbicide test; assay type: in vivo, Setaria faberi; conditions: for Plant response rating, Foxtail, Giant: preemergence; for Foxtail, Giant plant response rating: postemergence, visual rating, scale 0 (no effect) to 100 (complete control)
Outline: as §2

lambsquarters = experiment: Test B pre-/postemergence herbicide test; assay type: in vivo, Chenopodium album; conditions: for Plant response rating, Lambsquarters: preemergence; for Lambsquarters plant response rating: postemergence, visual rating, scale 0 (no effect) to 100 (complete control)
Outline: as §2

morningglory = experiment: Test B pre-/postemergence herbicide test; assay type: in vivo, Ipomoea coccinea; conditions: for Plant response rating, Morningglory: preemergence; for Morningglory plant response rating: postemergence, visual rating, scale 0 (no effect) to 100 (complete control)
Outline: as §1

pigweed = experiment: Test B pre-/postemergence herbicide test; assay type: in vivo, Amaranthus retroflexus; conditions: for Plant response rating, Pigweed: preemergence; for Pigweed plant response rating: postemergence, visual rating, scale 0 (no effect) to 100 (complete control)
Outline: as §2

rice [2] = experiment: Test B pre-/postemergence herbicide test; assay type: in vivo, Oryza sativa; conditions: preemergence
Outline: as §1

velvetleaf = experiment: Test B pre-/postemergence herbicide test; assay type: in vivo, Abutilon theophrasti; conditions: for Plant response rating, Velvetleaf: preemergence; for Velvetleaf plant response rating: postemergence, visual rating, scale 0 (no effect) to 100 (complete control)
Outline: as §2

blackgrass = experiment: Test B postemergence herbicide test; assay type: in vivo, Alopecurus myosuroides; conditions: postemergence, visual rating, scale 0 (no effect) to 100 (complete control)
Outline: (§3)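 Formulated test chemicals went onto postemergence plants measuring 2 to 18 cm, at one to four leaves. For the paddy assay, species had reached two leaves. Scoring took place 13–15 days later by eye, relative to untreated plants, using 0 for no effect up to 100 for full control.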

wheat = experiment: Test B postemergence herbicide test; assay type: in vivo, Triticum aestivum; parameters: key to Wheat plant response rating: 0 = no effect, 100 = complete control; conditions: postemergence, 500 g ai/ha; visual rating, scale 0 (no effect) to 100 (complete control)
Outline: (§4)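 Treated at 2-leaf (paddy) or 1–4-leaf, 2–18 cm (postemergence); greenhouse 13–15 d; visual score vs control, 0 none to 100 complete control; dash = not tested.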

wild oat = experiment: Test B postemergence herbicide test; assay type: in vivo, Avena fatua; conditions: postemergence, visual rating, scale 0 (no effect) to 100 (complete control)
Outline: as §4

rice [3] = experiment: Test B flooded paddy test; assay type: in vivo, Oryza sativa; conditions: 1000 g ai/ha, visual rating, scale 0 to 100 (0 no effect, 100 complete control), 13 to 15 days
Outline: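 Each value is a visual 0–100 response rating taken against controls 13 to 15 days after treatment in the greenhouse. Plants received formulated chemical postemergence at the 1- to 4-leaf stage or, in flooded paddy, at the 2-leaf stage.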

[4] = tested on: small flower umbrella sedge; experiment: Test B flooded paddy test; assay type: in vivo, Cyperus difformis; conditions: 1000 g ai/ha, visual rating, scale 0 to 100 (0 no effect, 100 complete control), 13 to 15 days
Outline: as §3

ducksalad [5] = experiment: Test B flooded paddy test; assay type: in vivo, Heteranthera limosa; conditions: 1000 g ai/ha, visual rating, scale 0 to 100 (0 no effect, 100 complete control), 13 to 15 days
Outline: as §3

barnyardgrass [6] = experiment: Test B flooded paddy test; assay type: in vivo, Echinochloa crus-galli; conditions: 1000 g ai/ha, visual rating, scale 0 to 100 (0 no effect, 100 complete control), 13 to 15 days
Outline: as §3

rice [7] = experiment: Test C flooded paddy test; assay type: in vivo, Oryza sativa
Outline: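 Injury scored visually against controls on a 0 (no effect) to 100 (complete control) scale, 12 to 14 days after treatment in greenhouse. Flooded paddy plants treated at 2-leaf stage; postemergence plants at 1- to 4-leaf stage, 2 to 18 cm tall.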

[8] = tested on: smallflower umbrella sedge; experiment: Test C flooded paddy test; assay type: in vivo, Cyperus difformis
ducksalad [9] = experiment: Test C flooded paddy test; assay type: in vivo, Heteranthera limosa
barnyardgrass [10] = experiment: Test C flooded paddy test; assay type: in vivo, Echinochloa crus-galli
Outline: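 After a postemergence application at 1 to 4 leaves (plants 2–18 cm high), or at 2 leaves for barnyardgrass in flooded paddy, plants stayed in the greenhouse for 12 to 14 days. Damage was then judged visually relative to control plants, with 100 indicating complete control.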

[11] = 500 g ai/ha, visual rating 0-100, 0 no effect, 100 complete control
[12] = 125 g ai/ha, 0 to 100 scale, 0 is no effect, 100 is complete control
[13] = 62 g ai/ha, scale 0 to 100 (0 no effect, 100 complete control)
[14] = 125 g ai/ha, scale 0 to 100 (0 no effect, 100 complete control)
[15] = 250 g ai/ha, scale of 0 to 100, 0 is no effect, 100 is complete control
[16] = 500 g ai/ha, visual rating after 12 to 14 days, scale 0 to 100 (0 no effect, 100 complete control)

SMILES: CCn1nc(C(C)(C)C)cc1C(=O)Nc1cccc(C(=O)N(C)CC#N)n1 [Compound 158]
- Plant response rating, Barnyardgrass (barnyardgrass [1]; [11]): 100
- Barnyardgrass plant response rating (barnyardgrass [1]; 125 g ai/ha): 0
- Barnyardgrass plant response rating (barnyardgrass [1]; 500 g ai/ha): 0
- Plant response rating, Barnyardgrass (barnyardgrass [1]; [12]): 70
- Plant response rating, Surinam Grass (Surinam grass; [11]): 90
- Surinam Grass plant response rating (Surinam grass; 125 g ai/ha): 0
- Surinam Grass plant response rating (Surinam grass; 500 g ai/ha): 0
- Plant response rating, Surinam Grass (Surinam grass; [12]): 30
- Plant response rating, Cocklebur (cocklebur; [11]): 40
- Cocklebur plant response rating (cocklebur; 125 g ai/ha): 20
- Cocklebur plant response rating (cocklebur; 500 g ai/ha): 70
- Plant response rating, Cocklebur (cocklebur; [12]): 40
- Plant response rating, Corn (corn; [11]): 60
- Corn plant response rating (corn; 125 g ai/ha): 0
- Corn plant response rating (corn; 500 g ai/ha): 10
- Plant response rating, Corn (corn; [12]): 0
- Plant response rating, Crabgrass, Large (large crabgrass; [11]): 100
- Crabgrass, Large plant response rating (large crabgrass; 125 g ai/ha): 30
- Crabgrass, Large plant response rating (large crabgrass; 500 g ai/ha): 30
- Plant response rating, Crabgrass, Large (large crabgrass; [12]): 80
- Plant response rating, Foxtail, Giant (giant foxtail; [11]): 100
- Foxtail, Giant plant response rating (giant foxtail; 125 g ai/ha): 0
- Foxtail, Giant plant response rating (giant foxtail; 500 g ai/ha): 30
- Plant response rating, Foxtail, Giant (giant foxtail; [12]): 50
- Plant response rating, Lambsquarters (lambsquarters; [11]): 100
- Lambsquarters plant response rating (lambsquarters; 125 g ai/ha): 80
- Lambsquarters plant response rating (lambsquarters; 500 g ai/ha): 80
- Plant response rating, Lambsquarters (lambsquarters; [12]): 70
- Plant response rating, Morningglory (morningglory; [11]): 50
- Morningglory plant response rating (morningglory; 125 g ai/ha): 0
- Morningglory plant response rating (morningglory; 500 g ai/ha): 50
- Plant response rating, Morningglory (morningglory; [12]): 50
- Plant response rating, Pigweed (pigweed; [11]): 100
- Pigweed plant response rating (pigweed; 125 g ai/ha): 50
- Pigweed plant response rating (pigweed; 500 g ai/ha): 70
- Plant response rating, Pigweed (pigweed; [12]): 100
- Plant response rating, Rice (rice [2]; [11]): 90
- Plant response rating, Rice (rice [2]; [12]): 80
- Plant response rating, Velvetleaf (velvetleaf; [11]): 80
- Velvetleaf plant response rating (velvetleaf; 125 g ai/ha): 50
- Velvetleaf plant response rating (velvetleaf; 500 g ai/ha): 50
- Plant response rating, Velvetleaf (velvetleaf; [12]): 50
- Blackgrass plant response rating (blackgrass; 125 g ai/ha): 20
- Blackgrass plant response rating (blackgrass; 500 g ai/ha): 30
- Wheat plant response rating (wheat): 10
- Oat, Wild plant response rating (wild oat; 125 g ai/ha): 30
- Oat, Wild plant response rating (wild oat; 500 g ai/ha): 40
- Rice plant response rating (rice [3]): 60
- Sedge, Umbrella plant response rating [4]: 80
- Ducksalad plant response rating (ducksalad [5]): 90
- Barnyardgrass plant response rating (barnyardgrass [6]): 70
- Rice plant response rating (rice [7]; [13]): 0
- Rice plant response rating (rice [7]; [14]): 0
- Rice plant response rating (rice [7]; [15]): 35
- Plant response rating, Rice (rice [7]; [16]): 60
- Sedge, Umbrella plant response rating [8, 13]: 15
- Sedge, Umbrella plant response rating [8, 14]: 45
- Sedge, Umbrella plant response rating [8, 15]: 70
- Plant response rating, Sedge, Umbrella [8, 16]: 80
- Ducksalad plant response rating (ducksalad [9]; [13]): 0
- Ducksalad plant response rating (ducksalad [9]; [14]): 0
- Ducksalad plant response rating (ducksalad [9]; [15]): 20
- Plant response rating, Ducksalad (ducksalad [9]; [16]): 50
- Barnyardgrass plant response rating (barnyardgrass [10]; [13]): 0
- Barnyardgrass plant response rating (barnyardgrass [10]; 125 g ai/ha, scale of 0 to 100, 0 is no effect, 100 is complete control): 0
- Barnyardgrass plant response rating (barnyardgrass [10]; [15]): 15
- Plant response rating, Barnyardgrass (barnyardgrass [10]; [16]): 35

Reference: patent US20060069132A1, “Azolecarboxamide herbicides” (priority 2004, published 2006)
